Experimental data as given in patent US5780509A, “Compound bearing two, 2,6-diiodophenol-4-YL groups and diagnostic drug for iodine allergy” (Muromachi Kagaku Kogyo Kaisha, Ltd., priority 1994, dated 1998).
Non-standard residues stand in square brackets, D forms with d. Residues, ends and D or L forms follow the SMILES beside them. Tyr(3,5-I2) = N[C@@H](Cc1cc(I)c(O)c(I)c1)C(=O)O

Columns and labels:
anti-iodine antibody = assay: ELISA inhibition potency (OD50) on anti-iodine antibody; type: binding, guinea-pig; conditions: serial twofold dilution, equal volume of 50-fold diluted anti-iodine antiserum; read-out: Inhibitory activity (OD50): concentration which decreased optical density of ELISA to a half of the control
Method: Guinea-pigs were immunized with iodine by injecting subcutaneously 1 mg of iodine containing potassium iodide solution treated with complete Freund's adjuvant seven times at intervals of 2 weeks, and anti-iodine antiserum was obtained from these animals. Antibody titers of the sera were determined by enzyme linked immunosorbent assay (ELISA) using 96 well microplate coated with iodinated guinea pig serum albumin (I-GSA) ELISA inhibition activities of the following compounds were studied. The compounds used were potassium iodide, tyrosine and its derivatives such as L-tyrosine, monoiodo-L-tyrosine, diiodotyrosine, hexaiodo-L-trityrosine, L-hexatyrosine and 12 iodo-L-hexatyrosine, and iodinated X-ray contrast media such as amidotrizoic acid, iodamide, ioxaglic acid, iohexol, iopamidol and iomeprol.
ELISA inhibition study was performed as follows. Antibody concentration of anti-iodine antiserum gave the maximum optical density in ELISA till one hundredfold serum dilution. Accordingly, seven steps of twofold serial dilution of anti-iodine antiserum, starting from 50-fold serum dilution, were made with physiological saline as a diluent. To each of the serially diluted sera, were added equal volume of solution containing each of the test compounds described above. After overnight incubation at 4 C, antibody activity was determined by ELISA. Phosphate buffered physiological saline (PBS) was used as a control. ELISA inhibitory activities of the test compounds were determined at the serum dilution which gave about 50% of the maximum optical density (OD415nm =2.6) of ELISA of control at serum dilution of one hundredfold. The inhibitory activity was calculated by the following calculation formula.
In the next, ELISA inhibition study was undertaken to determine the potency of ELISA inhibitory activity of active compounds. […] The inhibitory activity was expressed as the concentration which decreased optical density of ELISA to a half (OD50) of the control.

guinea-pigs [1] = assay: Active systemic anaphylaxis (ASA) reaction, sensitization antigenicity; type: in vivo, guinea-pig
Source text: (§1) Sensitization antigenicity of iodinated tyrosine derivative was studied.
(§2) Trityrosine was selected as the tyrosine derivative, and this was iodinated to obtain iodinated trityrosine. Guinea-pigs were sensitized with iodinated trityrosine. As a positive control, employed was iodinated guinea-pig serum albumin (GSA). Guinea-pigs of the control group were sensitized with iodinated GSA. Sensitization was examined by active systemic anaphylaxis (ASA) reaction and passive cutaneous anaphylaxis (PCA) reaction.
(§3) Sensitization: Each of iodinated trityrosine and iodinated GSA was emulsified with complete Freund's adjuvant, and injected subcutaneously to the back of animals at a dose of 10 mg/animal (2.5 mg, respectively, at 4 sites), 3 times at intervals of 2 weeks.
ASA reaction: Iodinated GSA (1 mg/animal) was injected intravenously to the animals one week after the last sensitization injection, by which ASA reaction was elicited. The animals which indicated symptoms of anaphylactic shock were judged as being positive.

[2] = system: guinea-pigs immunized with iodine (iodine-sensitized) and non-sensitized guinea-pigs; assay: Active cutaneous anaphylaxis (ACA) reaction, elicitation antigenicity; type: in vivo, guinea-pig (male SPF, Hartley strain); set-up: key to Mean diameter of blue spots, non-sensitized guinea-pig / Mean diameter of blue spots, iodine-sensitized guinea pig (second value) / Mean diameter of blue spots, iodine-sensitized guinea pig (first value): --: Negative response; **: Weak response; conditions: for Mean diameter of blue spots, iodine-sensitized guinea pig (first value) / Mean diameter of blue spots, iodine-sensitized guinea pig (second value) / Mean diameter of blue spots, non-sensitized guinea-pig: 30 min
Source text: The elicitation antigenicity of iodinated tyrosine derivatives was studied in the bases of the active cutaneous anaphylaxis (ACA) reaction in guinea-pigs immunized with iodine.
Animals: Male SPF guinea-pigs of Hartley strain, weighing 300~350 g were purchased from Charles River Japan Co., Ltd. These were immunized after having been acclimated for one week.
Sensitization: A solution of iodine potassium iodide (Wako Junyaku, special grade reagent) and complete Freund's adjuvant (Difco) were mixed in equal amounts to form an emulsion. This was administered subcutaneously into the back of guinea-pigs at a dose of 2 mg of iodine per animal 3 times at intervals of 2 weeks. Active cutaneous anaphylaxis (ACA) was elicited 2 weeks after the last sensitization injection.
ACA Induction: 2% Evans blue physiological solution (0.5 ml/animal) was administered intravenously to guinea-pigs, and immediately thereafter 0.1 ml of an elicitation antigen was administered intradermally into the back, and after 30 min. the existence of pigment leakage at the intradermally injected sites was observed.
Elicitation antigen: Iodinated dityrosine, iodinated trityrosine, iodinated dityrosylphenylalanine were administered intracutaneously at 0.1 ml/site. Guinea-pig serum albumin (fraction V: Sigma) was iodinated and used as a positive control. Corresponding noniodinated ones were also administered intradermally as negative controls.
Iodination reaction: To a 50 mM boric acid buffer solution (pH 9.5) of 10 mg/ml of dityrosine, trityrosine, or dityrosylphenylalanine (all produced by Sigma Co., Ltd.) or guinea-pig serum albumin (abbreviated hereafter as GSA), a 0.5M solution of iodine was added at a ratio of 10:1, and these were reacted at 37 C. overnight. The excess iodine in the reaction mixture was reduced by adding sodium thiosulfate (Nakarai Chemical Co., Ltd.). For purification of the iodinated tyrosine derivatives, the reaction mixture was extracted with ethyl acetate and dried with magnesium sulfate, and hexane was added to obtain crystals. For purification of the iodinated GSA, the reaction mixture was purified by passing it through a Sephadex G25 column.

guinea-pigs [3] = assay: Passive cutaneous anaphylaxis (PCA) reaction, sensitization antigenicity; type: in vivo, guinea-pig
Source text: as §1, §2, §3
PCA reaction: The blood was taken from each animal, and the serum was separated one week after the last sensitization injection. The serum was diluted fivefold with physiological saline, and injected intradermally to normal guinea-pigs at a dose of 0.1 ml/site. PCA reaction was provoked by intravenous injection of iodinated GSA (1 mg/animal) and Evans blue solution to the recipient animals 4 hours after the intradermal serum injection. PCA reaction was judged as being positive when the diameter of blue spot at the site of intradermal injection was 5 mm or larger.

In the case of `N[C@@H](Cc1cc(I)c(O)c(I)c1)C(=O)N[C@@H](Cc1cc(I)c(O)c(I)c1)C(=O)N[C@@H](Cc1cc(I)c(O)c(I)c1)C(=O)O` [Iodinated trityrosine, hexaiodo-L-trityrosine] (H-[Tyr(3,5-I2)]-[Tyr(3,5-I2)]-[Tyr(3,5-I2)]-OH), the IC50 (anti-iodine antibody) is reported as 125 µM, the “ASA reaction: number of positive animal/number of sensitized animal” value (guinea-pigs [1]; sensitized 10 mg/animal s.c. 3 times, elicited with iodinated GSA 1 mg/animal i.v.) is reported as 0/5 and the “ASA reaction (in words)” value (guinea-pigs [1]; sensitized group) is reported as “negative in all animals”. The “Mean diameter of blue spots, iodine-sensitized guinea pig (first value)” value (“Mean diameter of blue spots … (first value)” below) ([2]; 1 μg/site intradermal) was 6.0 mm, the “Mean diameter of blue spots, iodine-sensitized guinea pig (second value)” value (shortened to “Mean diameter of blue spots … (second value)”) ([2]; 1 μg/site intradermal) was “--” and the “Mean diameter of blue spots, non-sensitized guinea-pig” value ([2]; 1 μg/site intradermal) was “--”. For the same compound, the “Mean diameter of blue spots … (first value)” value ([2]; 10 μg/site intradermal) was 8.5 mm, the “Mean diameter of blue spots … (second value)” value ([2]; 10 μg/site intradermal) was 4.0 mm and the “Mean diameter of blue spots, non-sensitized guinea-pig” value ([2]; 10 μg/site intradermal) was “--”. For the same compound, the “Mean diameter of blue spots … (first value)” value ([2]; 100 μg/site intradermal) was 11.0 mm, the “Mean diameter of blue spots … (second value)” value ([2]; 100 μg/site intradermal) was 6.0 mm and the “Mean diameter of blue spots, non-sensitized guinea-pig” value ([2]; 100 μg/site intradermal) was “--”. For the same compound, the “ACA reaction (in words)” value ([2]; intradermal injection, guinea-pigs sensitized with iodine) was “ACA reaction was elicited”, the “PCA reaction (in words)” value (guinea-pigs [3]; sensitized group) was “negative in all animals” and the “Anti-iodine antibody production / sensitization antigenicity (in words)” value (guinea-pigs [3]; sensitized guinea-pigs, from ASA and PCA reactions) was “no anti-iodine antibody was produced”. The “PCA reaction: number of positive animal/number of sensitized animal” value (guinea-pigs [3]; serum diluted fivefold, 0.1 ml/site, iodinated GSA 1 mg/animal i.v., positive = blue spot 5 mm or larger) was 0/5.
